Results taken from patent US20210128680A1, “METHOD FOR TREATING CARDIOPULMONARY DISORDER” (Chang Gung University, priority 2019, published 2021).
“Also recorded” adds a separate entry of the source.

Columns and labels:
control (CON) PASMCs = test: BrdU incorporation cell proliferation assay, control PASMCs; type: cell-based, rat; conditions: compared with vehicle treatment, FIG. 5
Method: (§1) PASMCs were isolated from lungs of MCT-treated or control rats using the explant method, as described previously (Lai Y J et al. Am J Respir Crit Care Med. 2008, 178(2):188-96). To culture PASMCs, the PA was dissected from lung and cardiac tissues. The pulmonary arterial tissue was cut into small pieces and suspended in Dulbecco's modified Eagle's medium (DMEM) (Gibco) containing 100 U/mL penicillin, 100 µg/mL streptomycin (Gibco), and 20% fetal bovine serum (FBS) (Gibco). We observed a decrease in desmin, a smooth muscle cell gene marker, at passage 3. Therefore, rat PASMCs were used before passage 3 for all of the in vitro experiments. Characterization of PASMCs was performed by immunocytochemical staining with anti-α-SM-actin (Sigma-Aldrich) and anti-desmin (NeoMakers) antibodies.
(§2) The proliferative activity of PASMCs and the effects of the lumikine were determined by an ELISA-based 5-bromo-2-deoxyuridine (BrdU) incorporation assay kit (Roche Diagnostics Co.) according to the manufacturer's instructions.
(§3) Proliferation of PASMC is critical to the development of PAH. To characterize whether lumikine affected the proliferation of PASMCs in PAH and non-PAH subjects, the PASMCs were isolated from rats with or without MCT induced PAH.

MCT PASMCs [1] = test: pAKT expression in MCT PASMCs; type: cell-based, rat
Method: as §1
Tissue samples or cell samples were homogenized in lysis buffer containing 50 mM Tris-HCl, pH 7.4, 50 mM NaCl, 5 mM EDTA, 1% Triton X-100, 0.05% SDS, 50 mM NaF, 10 mM β-glycerophosphate, sodium pyrophosphate, 100 μM Na3VO4, and protease inhibitor cocktail (Calbiochem, Millipore). […] Blots were visualized using an enhanced chemi-luminescence detection system (Millipore). Samples were normalized to GAPDH (Santa Cruz; 1:10000) and quantified by densitometry.

hypoxia-induced PAH mice = test: Hypoxia-induced PAH mice: RV hypertrophy and pulmonary artery medial wall thickness; type: in vivo; conditions: for right ventricular (RV) weight (RV/LV+S ratio): hypoxia (10% O2) mice, 3 ng/kg/day, 28 days, FIG. 6 panel A
Method: Adult male Sprague-Dawley rats (200-250 g in body weight) were randomized assigned into two groups for treatment of 28 days after s.c. injection of saline or 60 mg/kg monocrotaline (MCT) (Sigma-Aldrich) to induce pulmonary hypertension (PH). Rats were examined after 3 weeks of treatment (on day 28). Hypoxic pulmonary vascular remodeling was induced by exposure of mice (8-week-old C57BL/6) to chronic hypoxia (10% 02) in a ventilated chamber, as described previously (Li H H et al. Am J Physiol Lung Cell Mol Physiol. 2017: ajplung 00245 2017). The chronic effects of lumikne were assessed in mice exposed to hypoxia for 28 days. Briefly, animals were kept in hypoxic conditions to develop pulmonary hypertension. […] All animal experimental protocols were reviewed and approved by the Chang Gung University IACUC. This study was carried out in strict accordance with the recommendations in the Guide for the Care and Use of Laboratory Animals of the National Institutes of Health. Housing and maintenance was provided by Chang Gung University, and all animals were fed a standard chow diet with free access to water. After sacrifice, the RV wall was separated from the LV wall and ventricular septum. Wet weight of the RV, free LV wall, and ventricular septum was determined and weighted. RV hypertrophy was expressed as the ratio of weight of the RV wall and that of the free LV wall and ventricular septum (LV+S). Fixation was performed by immersion of the lungs in a 10% paraformaldehyde solution. For paraffin embedding, the entire lungs were dissected in tissue blocks from all lobes. Sectioning at 5 μm was performed from all paraffin-embedded blocks. To assess the type of remodeling of muscular pulmonary arteries, the percentage of MWT was utilized to characterize vascular medial hypertrophy by α-SM-actin staining. Under 400× microscopic examination, MWT was defined as the distance between the internal and external elastic laminae using “ImageJ” software downloaded from the open source available from the internet. […]

MCT PASMCs [2] = test: BrdU incorporation cell proliferation assay, MCT PASMCs; type: cell-based, rat; conditions: FIG. 5 panel B
Method: as §1, §2, §3

human PASMCs = test: Western blot of protein expression in human PASMCs under in vitro hypoxia; type: cell-based
Method: Human PASMCs were obtained from commercial sources (Lonza). Cells were grown in SMC growth medium (5% FBS, 1 μg/ml hydrocortisone, 10 ng/ml human epidermal growth factor, 3 ng/ml basic fibroblast growth factor, 10 μg/ml heparin, 10 μg/ml gentamycin, and 0.25 μg/ml amphotericin) (Lonza) and were used between passages 4 and 7. Cells were starved in SMC medium with 0.1% FBS for 24 h before the experiment. Human PASMCs were cultured in the TGF-β 2.5 ng/ml condition for 6 hours to determine the effect of lumikine on the protein expressions.
Human PASMCs were cultured in the hypoxic condition for 24 hours to determine the effect of lumikine on the protein expressions. Hypoxia was created in an incubator: 5% CO2+94% N2+[…], 37° C. Lumikine were dissolved in culture medium at a final concentration of 100 nM.
Tissue samples or cell samples were homogenized in lysis buffer containing 50 mM Tris-HCl, pH 7.4, 50 mM NaCl, 5 mM EDTA, 1% Triton X-100, 0.05% SDS, 50 mM NaF, 10 mM β-glycerophosphate, sodium pyrophosphate, 100 μM Na3VO4, and protease inhibitor cocktail (Calbiochem, Millipore). Immunoblotting was performed using anti-lumican (Abcam; 1:2000), ant-HIF-1α(Abeam; 1:1000), anti-p-AKT, or AKT (Cell Signaling; 1:1000), and anti-p-SMAD2 (Cell Signaling; 1:1000), as primary antibodies. Secondary antibodies specific for peroxidase-conjugated anti-mouse IgG (Jackson; 1:10000) or anti-rabbit IgG (Jackson; 1:10000) were used as needed. Blots were visualized using an enhanced chemi-luminescence detection system (Millipore). Samples were normalized to GAPDH (Santa Cruz; 1:10000) and quantified by densitometry.
In this example, in vitro hypoxic (1% oxygen) model was used to evaluate the effect of the present synthetic peptide—lumikine (SEQ ID NO: 2) on pulmonary arterial smooth muscle cell (PASMCs).

In the case of “lumikine: synthetic peptide X1EX2LRVANEVTLN (SEQ ID NO: 1) in which X1 is tyrosine (Y) and X2 is alanine (A) (YEALRVANEVTLN)”, the “proliferation of control PASMCs” value (control (CON) PASMCs) is reported as “no significantly effects; also recorded: did not affect”, the pAKT expression (MCT PASMCs [1]) is reported as “reduced” and the “right ventricular (RV) weight (RV/LV+S ratio)” value (hypoxia-induced PAH mice) is reported as “significantly reduced”. For the same compound, the “right ventricular (RV) weight (RV/LV+S ratio)” value (hypoxia-induced PAH mice; listed as Lumikine) was “reduction”, the “medial wall thickness (MWT) of the pulmonary artery” value (hypoxia-induced PAH mice; hypoxia mice, 3 ng/kg/day for 21 days (days 8-28), PAs 25-100 μm, FIG. 6 panel B) was “significantly reduction” and the “serum-induced PASMC proliferation” value (MCT PASMCs [2]; 10% FBS) was “dose-dependently decrease; also recorded: inhibited significantly”. For the same compound, the level of lumican (human PASMCs; lumikine 100 nM, hypoxic condition 24 hours, FIG. 4 panel B) was “increase”, the “level of HIF-1α” value (human PASMCs; lumikine 100 nM, hypoxic condition 24 hours, FIG. 4 panel C) was “reduction” and the “level of pSmad3” value (human PASMCs; lumikine 100 nM, hypoxic condition 24 hours, FIG. 4 panel D) was “reduction”. For the same compound, the “level of pAKT” value (human PASMCs; lumikine 100 nM, hypoxic condition 24 hours, FIG. 4 panel E) was “reduction” and the Smad4 (human PASMCs; lumikine treatment, hypoxic condition, FIG. 4F) was “remained unaffected”.
`O=S(=O)(NCCNC/C=C/c1ccc(Br)cc1)c1cccc2cnccc12` [H89, reference compound] was tested, and the “effect on lumikine inhibition of MCT PASMC proliferation” value (MCT PASMCs [2]; H89 with lumikine (100 nM)) was “reversed”.
